Reference: US4719302A (priority 1987, dated 1988)
Values after ≈ are worked out from the molar mass of the structure shown. Where two headings read alike, the source gives them in different places.

Legend:
Assay type in all cases: cell-based
[1] = tested on: Candida albicans ATCC 10231; assay: antifungal activity, disc agar assay (Minimum Inhibitory Concentration), Candida albicans
Protocol: (§1) The compounds of the invention are tested to determine their antifungal activity. The assay procedure is as follows:
(§2) The compounds to be tested are solubilized or suspended in appropriate reagent and further diluted in sterile distilled water to provide a range of concentrations from 200 to 10 μg/ml. 20 Lambda portions are placed on sterile dried 1/4 inch paper discs and allowed to dry for 20-30 minutes. Agar plates with a 10 ml base layer are seeded with the fungi in a 4 ml seed layer and allowed to solidify. The impregnated discs are then placed on the seeded agar surface and incubated for the time required for the particular culture.
(§3) The representative fungi are:
Candida albicans ATCC 10231
(§4) All are human pathogens; the first four cause serious systemic mycotic infections as well as local. The trychophyton culture is mainly a dermatophyte.

[2] = tested on: Cryptococcus neoformans ATCC 14115; assay: antifungal activity, disc agar assay (Minimum Inhibitory Concentration), Cryptococcus neoformans
Protocol: as §1, §2, §3, §4

[3] = tested on: Trichophyton mentagrophytes ATCC 9533; assay: antifungal activity, disc agar assay (Minimum Inhibitory Concentration), Trichophyton mentagrophytes
Protocol: as §1, §2, §3
Trichophyton mentagrophytes
as §4

[4] = tested on: Histoplasma capsulatum Yeast Phase ATCC 11407; assay: microbe, parasite or virus in culture; conditions: read-out: Minimum Inhibitory Concentration
[5] = tested on: Blastomyces dermatitidis Yeast Phase ATCC 28839; assay: antifungal activity, disc agar assay (Minimum Inhibitory Concentration), Blastomyces dermatitidis yeast phase; conditions: read-out: Minimum Inhibitory Concentration
Protocol: as §1, §2, §3
Blastomyces dermatitidis
as §4

[6] = ATCC10231, Candida Albicans ATCC 10231, read-out: Minimum Inhibitory Concentration
[7] = ATCC14115, Cryptococcus Neoformans ATCC 14115, read-out: Minimum Inhibitory Concentration
[8] = ATCC9533, Trichophyton Mentagrophytes ATCC 9533, read-out: Minimum Inhibitory Concentration
[9] = Blastomyces Dermatitidis Yeast Phase ATCC 28839

Compound	MIC [1, 6]	MIC [2, 7]	MIC [3, 8]	MIC [4]	MIC [5, 9]	MIC ([1]; Candida albicans, ATCC10231, read-out: Minimum Inhibitory Concentration)	MIC ([2]; Cryptococcus neoformans, ATCC14115, read-out: Minimum Inhibitory Concentration)	MIC ([3]; Trichophyton mentagrophytes, ATCC9533, read-out: Minimum Inhibitory Concentration)	MIC [5]
CCOC(=O)c1c[nH]c2c(F)cc3c(=O)c(C(=O)O)cn(CC)c3c2c1=O [Example 1, 1-Ethyl-6-fluoro-1,4,7,10-tetrahydro-4,10-dioxo-1,7-phenanthroline-3,9-dicarboxylic acid 9-ethyl ester]	32 µg/mL (≈ 85.5 µM)	64 µg/mL (≈ 171 µM)	64 µg/mL (≈ 171 µM)	32 µg/mL (≈ 85.5 µM)	32 µg/mL (≈ 85.5 µM)	–	–	–	–
CCOC(=O)c1cn(CC)c2c(cc(F)c3c2c(=O)c(C(=O)OCC)cn3CC)c1=O [Example 2, 1,7-Diethyl-6-fluoro-1,4,7,10-tetrahydro-4,10-dioxo-1,7-phenanthroline-3,9-dicarboxylic acid diethyl ester]	> 64 µg/mL	> 64 µg/mL	> 64 µg/mL	64 µg/mL (≈ 149 µM)	64 µg/mL (≈ 149 µM)	–	–	–	–
CCn1cc(C(=O)O)c(=O)c2c1c(F)cc1c(=O)c(C(=O)O)cn(CC)c12 [Example 3, 1,7-Diethyl-6-fluoro-1,4,7,10-tetrahydro-4,10-dioxo-1,7-phenanthroline-3,9-dicarboxylic acid]	> 64 µg/mL	> 64 µg/mL	> 64 µg/mL	64 µg/mL (≈ 171 µM)	64 µg/mL (≈ 171 µM)	–	–	–	–
CCOC(=O)c1c[nH]c2c(cc(F)c3c2c(=O)ccn3CC)c1=O [Example 4, 7-Ethyl-6-fluoro-1,4,7,10-tetrahydro-4,10-dioxo-1,7-phenanthroline-3-carboxylic acid ethyl ester]	–	–	–	> 256 µg/mL	–	> 256 µg/mL	> 256 µg/mL	> 256 µg/mL	> 256 µg/mL
CCOC(=O)c1c[nH]c2c(cc(F)c3c2c(=O)c(C(=O)O)cn3CC)c1=O [Example 5, 7-Ethyl-6-fluoro-1,4,7,10-tetrahydro-4,10-dioxo-1,7-phenanthroline-3,9-dicarboxylic acid 3-ethyl ester]	> 256 µg/mL	> 256 µg/mL	> 256 µg/mL	> 256 µg/mL	> 256 µg/mL	–	–	–	–
CCOC(=O)c1c[nH]c2c(cc(F)c3c2c(=O)c(C(=O)OCC)cn3CC)c1=O [Example 6, 7-Ethyl-6-fluoro-1,4,7,10-tetrahydro-4,10-dioxo-1,7-phenanthroline-3,9-dicarboxylic acid diethyl ester]	> 64 µg/mL	> 64 µg/mL	> 64 µg/mL	64 µg/mL (≈ 159 µM)	64 µg/mL (≈ 159 µM)	–	–	–	–
